Experiments:
human Smo WT = molecular target: T1, human Smo WT (Homo sapiens, UniProt Q99835); test: Bodipy-Cyclopamine (BC) binding assay, HEK293T cells transfected with human Smo WT; conditions: BC (5 nM) displacement, transiently transfected 293T cells
T1 construct: Myc-DDK; expressed in transfected cells; host or cells: HEK293T
Experimental: Cells were washed in PBS supplemented with 0.5% fetal bovine serum, fixed in 4% paraformaldehyde in phosphate-buffered saline (PBS) for 10 min, and incubated for 2 h at 37 °C both in the same medium supplemented with Bodipy-Cyclopamine (5 nM) and the studied compounds. The cells were permeabilized with Triton X100 (Sigma) 0.2%. Dako Fluorescent mounting (Dako, Carpinteria, CA, USA) was used as mounting medium and Hoechst reagent for staining of the cell nuclei. Bodipy (green) and Hoechst (blue) signals were analyzed in three to four representative fields per coverslip (× 20 magnification, 1000 cells/field). Data were expressed as percentage of BC incorporation observed with BC alone.[95]

[1] = system: Hh pathway (Gli-responsive firefly luciferase reporter); test: Hh-dependent Gli-luciferase reporter assay in SAG-treated NIH3T3 Shh-Light II cells; assay type: cell-based; conditions: SAG (200 nM)-treated NIH3T3 Shh-Light II cells, 48 h, normalized to Renilla; N.A. = Not Active
Experimental: The inhibitory properties of the potential Smo antagonists 1–17 were investigated in a luciferase reporter assay that is widely used for characterizing Hh inhibitors. NIH3T3 Shh-Light II cells, stably incorporating a Gli-responsive firefly luciferase reporter (Gli-RE),[25] were treated with the synthetic Smo agonist SAG[24] alone or in combination with the selected small molecules to evaluate their dose–response ability to suppress Hh pathway. […] We excluded the possibility that inhibition activity in this assay was mediated by cytotoxicity because no decrease was shown in the luciferase assay control Renilla as observed instead for 13–17.
The luciferase assay was performed in Shh-Light II cells, stably incorporating a Gli-responsive luciferase reporter and the pRL-TK Renilla (normalization control), treated for 48 h with SAG (200 nM) and the studied compounds. Luciferase and Renilla activity were assayed with a dual-luciferase assay system according to the manufacturer's instruction (Biotium Inc., Hayward, CA, USA). Results are expressed as luciferase/Renilla ratios and represent the mean±S.D. of three experiments, each performed in triplicate.

Gli1 mRNA = Gli1 mRNA (qRT-PCR) in DAOY cells; assay type: cell-based, human; conditions: after treatment
Experimental: After the indicated times, a trypan blue count was performed to determine the growth rate. […] Results were normalized to endogenous control (β-actin and HPRT).
Total RNA was isolated with Trizol (Invitrogen/Life Technologies, Carlsbad, CA, USA) and reverse transcribed with SensiFAST cDNA Synthesis Kit (Bioline Reagents Limited, London, UK). Quantitative real-time PCR (Q-PCR) analysis of Gli1, Gli2, Ptch1, Bmp2, Pfkfb3, CycD1, CycD2, Pcna, Oct4, Nanog, β-2 microglobulin, β-actin and HPRT mRNA expression was performed on each cDNA sample using the VIIA7 Real Time PCR System employing Assay-on-Demand Reagents (Life Technologies).

[2] = system: cerebellar granule cell progenitors (GCPs); test: BrdU proliferation assay in SAG-treated cerebellar granule cell progenitors; assay type: cell-based, mouse; conditions: SAG + compound at 5 and 10 μM, 48 h
From the text: (§1) Hh signaling is a critical regulator of cerebellum development controlling the proliferation of granule cell progenitors (GCPs) under Purkinje cell-derived Shh stimuli. Withdrawal of Hh signal, occurring physiologically after the first post-natal week in mice,[54] causes cell growth arrest and induces their differentiation into mature granules.[55] Importantly, genetic and epigenetic alterations in the Hh pathway are responsible for the lack of GCPs proliferation arrest, leading to the tumorigenic conversion of these progenitors, considered as the cell of origin of MB.[56], [57] To investigate the biological effects of 12, we first tested its ability to suppress Hh-dependent growth in 4-day-old mouse cerebellar progenitors.
Figure 4 Compound 12 inhibition of Hh-dependent growth of cerebellum granule cell progenitors. […] (a) Inhibition of cell proliferation was measured as percentage of BrdU incorporation in comparison with SAG-treated sample. […] (c) qRT-PCR analysis show Hh and proliferation targets mRNA expression levels determined in GCPs culture derived from 4-day-old mouse cerebella treated with SAG alone or in combination with compound 12 at 5 and 10 μM concentrations for 48 h. […]
Cell proliferation was evaluated by BrdU detection (Roche, Welwyn Garden City, UK). […] At least 500 nuclei were counted in triplicate, and the number of BrdU-positive nuclei was recorded. […]

ASZ001 BCC cells = test: Trypan blue growth count of ASZ001 BCC cells; assay type: cell-based, mouse; conditions: compared with Cyclopamine, Vismodegib and LDE-225
Experimental: After the indicated times, a trypan blue count was performed to determine the growth rate.
Cell proliferation was evaluated by BrdU detection (Roche, Welwyn Garden City, UK). Briefly, after the BrdU pulse (24 h for GCPs) cells were fixed with 4% paraformaldehyde and permeabilized with 0.2% Triton X-100, and BrdU detection was performed according to the manufacturer's instructions. Nuclei were counterstained with Hoechst reagent. At least 500 nuclei were counted in triplicate, and the number of BrdU-positive nuclei was recorded. To determine the growth rate of viable cells, a trypan blue count was performed after a treatment period of 24–48–72 h with studied compound.

[3] = system: Hh target genes and growth markers in GCPs; test: qRT-PCR of Hh and proliferation targets in SAG-treated GCPs; assay type: cell-based, mouse; conditions: SAG + compound at 5 and 10 μM, 48 h
From the text: as §1
Figure 4 Compound 12 inhibition of Hh-dependent growth of cerebellum granule cell progenitors. (a and b) BrdU assay in cerebellar granule cell progenitors (GCPs). GCPs isolated from 4-day-old mice were treated with SAG alone or in combination with compound 12 at 5 and 10 μM concentrations for 48 h. (a) Inhibition of cell proliferation was measured as percentage of BrdU incorporation in comparison with SAG-treated sample. […] (c) qRT-PCR analysis show Hh and proliferation targets mRNA expression levels determined in GCPs culture derived from 4-day-old mouse cerebella treated with SAG alone or in combination with compound 12 at 5 and 10 μM concentrations for 48 h. […]

T1 sequence (Q99835 28-787): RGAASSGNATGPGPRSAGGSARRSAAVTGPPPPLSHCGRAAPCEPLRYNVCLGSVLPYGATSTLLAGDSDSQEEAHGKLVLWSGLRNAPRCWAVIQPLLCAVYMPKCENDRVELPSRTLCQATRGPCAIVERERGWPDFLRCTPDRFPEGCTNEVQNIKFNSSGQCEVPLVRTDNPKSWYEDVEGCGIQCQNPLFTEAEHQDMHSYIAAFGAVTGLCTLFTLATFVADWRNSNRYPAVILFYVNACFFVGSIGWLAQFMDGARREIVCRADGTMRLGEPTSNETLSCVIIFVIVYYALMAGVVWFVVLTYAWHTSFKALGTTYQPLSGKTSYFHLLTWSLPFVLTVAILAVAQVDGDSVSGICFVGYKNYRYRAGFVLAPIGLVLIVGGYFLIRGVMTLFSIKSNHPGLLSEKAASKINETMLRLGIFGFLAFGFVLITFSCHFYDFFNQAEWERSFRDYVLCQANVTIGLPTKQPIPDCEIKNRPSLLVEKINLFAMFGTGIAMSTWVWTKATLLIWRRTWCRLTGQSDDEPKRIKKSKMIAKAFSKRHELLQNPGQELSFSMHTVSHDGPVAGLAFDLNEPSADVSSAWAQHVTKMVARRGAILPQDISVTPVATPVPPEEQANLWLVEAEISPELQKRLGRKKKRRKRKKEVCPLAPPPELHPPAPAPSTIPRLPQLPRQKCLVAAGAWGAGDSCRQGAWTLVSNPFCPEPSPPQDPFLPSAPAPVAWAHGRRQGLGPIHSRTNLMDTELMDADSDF

IC50 (human Smo WT): 24.5 µM
SMILES: COc1ccc(C=CC(=O)c2cc(OC)c(OC)cc2OC)cc1OC [Compound 12, 3-(3,4-dimethoxy-phenyl)-1-(2,4,5-trimethoxy-phenyl)-2-propen-1-one]
IC50 [1]: 4.44 µM | Gli1 mRNA levels in DAOY cells (Gli1 mRNA): significant decrease of Gli1 mRNA levels | BrdU uptake / proliferation rate of GCPs [2]: reduced significantly | ASZ001 BCC cell growth in vitro (ASZ001 BCC cells): significant efficacy to impair ASZ001 BCC cell growth | mRNA levels of Hh target genes and cell growth markers (Gli1, Gli2, Ptch1, Pcna, cyclin D2) [3]: reduced mRNA levels
